{
  "source": "patent US20100158858A1",
  "about": "“ADMINISTRATION OF CARBOLINE DERIVATIVES USEFUL IN THE TREATMENT OF CANCER AND OTHER DISEASES” (priority 2007, published 2010)",
  "system": "MCF-7 breast cancer cells transfected with the human aromatase gene",
  "conditions": "for Mean % Inhibition of Tumor Size vs Vehicle at Day 42 / Mean Tumor Size at Day 98 / Mice cured / Mice dead / Mice with Escape to 500 mm^3 / Percent of mice with cures: letrazole only",
  "experimental": "The relative effects of the aromatase inhibitor agent letrozole and a test compound of the present invention were evaluated, when administered alone or in combination, on the in vivo growth of MCF-7 breast cancer cells transfected with the human aromatase gene.\nIn this study, cells (7.0×10^6 cells/mouse) were implanted subcutaneously in female ovariectomized athymic nude mice (n=10). Androstenedione was administered (via slow-release pellets) as a source of […].\nThe daily dose was administered in a target volume of 0.1 mL, which was adjusted according to subject weight. The oral vehicle was L21 (a mixture of 35% Labrasol, 35% Labrafac, and 30% Solutol). Individual vehicle-treated mice were removed from study when the tumor reached 1500 mm^3. After 100 days of treatment, treatment was stopped.",
  "key": {"[1]": {"conditions": "10 μg/mouse orally once per day"}, "[2]": {"conditions": "30 μg/mouse orally once per day"}},
  "note": "Like-named read-outs stand apart in the source and are kept apart here. Marks after values point to notes of the source that are not given here.",
  "data": [
    {"molecule": "N#Cc1ccc(C(c2ccc(C#N)cc2)n2cncn2)cc1", "note": "[letrozole]", "values": [
      {"measurement": "Mean % Inhibition of Tumor Size vs Vehicle at Day 42", "setting": "[1]", "result": 72, "unit": "%"},
      {"measurement": "Mean Tumor Size at Day 98", "setting": "[1]", "result": 225, "unit": "mm^3"},
      {"measurement": "Mice cured", "setting": "[1]", "result": "0 of 9"},
      {"measurement": "Mice dead", "setting": "[1]", "result": 1},
      {"measurement": "Mice with Escape to 500 mm^3", "setting": "[1]", "result": 2},
      {"measurement": "Percent of mice with cures", "setting": "[1]", "result": 0, "unit": "% cured"},
      {"measurement": "Mean % Inhibition of Tumor Size vs Vehicle at Day 42", "setting": "[2]", "result": 91, "unit": "%**"},
      {"measurement": "Mean Tumor Size at Day 98", "setting": "[2]", "result": 146, "unit": "mm^3"},
      {"measurement": "Mice cured", "setting": "[2]", "result": "2 of 9"},
      {"measurement": "Mice dead", "setting": "[2]", "result": 1},
      {"measurement": "Mice with Escape to 500 mm^3", "setting": "[2]", "result": 0},
      {"measurement": "Percent of mice with cures", "setting": "[2]", "result": 22, "unit": "% cured"},
      {"measurement": "Effect on tumor growth", "setting": "letrozole (10 μg/mouse) alone", "result": "the tumors did not regress, tumor growth was prevented"},
      {"measurement": "Effect on tumor growth", "setting": "letrozole (30 μg/mouse) alone", "result": "the tumors regressed"},
      {"measurement": "Mice with cures (no measurable tumor) at Day 100", "setting": "letrozole (30 μg/mouse) alone", "result": "two of the nine"}
    ]}
  ]
}
